Reference: US4513008A, “Virucidal compositions and therapy” (The Vinoxen Company, Inc., priority 1982, dated 1985)

Key:
[1] = Visually observed solubility in DMSO-HBSS; format: physicochemical; details: 1 mg in 1 ml of 70% DMSO-30% HBSS
Procedure: Vehicles. […] The DMSO-HBSS vehicle was selected based on the observed (visually) solubility of DHA in various DMSO-HBSS solutions. 1 mg DHA was soluble in 1 ml of 70% DMSO-30% HBSS.

herpes virus type 2 = experiment: Guinea pig bioassay: intravaginal HSV-2 infection, topical treatment; format: in vivo; parameters: key to MVL Score Day 5 / MVL Score Day 6 / MVL Score Day 7 / MVL Score Day: lesion severity scored on 0 to 4 scale; details: for MVL Scores Days 5-8: 0 to 4 scale; for Infected, Treated Surv/Total: 28 days; for MVL Score Day: last day; for reduction in lesion scores, in words: guinea pigs, topical
Procedure: In both studies, DHA was compared with ACV in a controlled study for effectiveness in reducing the occurrence and the severity of lesions resulting from infection by HSV-2 and in reducing mortality resulting from the virus infection.
Using substantially the procedures of Pancic et al., loc. cit., the topical activity of DHA, a representative and preferred virucide for use in the present method, was evaluated in mice and in guinea pigs. Both evaluations included comparative testing against ACV and the mouse tests included a comparison of two different vehicles.
A blind comparative test was carried out on guinea pigs using coded substances labeled A through D. The testers were told only that one of the four substances was ACV, that the other three coded samples were the same material, in concentrations of 0.1, 1.0 and 10 mg/ml, and that all four samples were formulated in a polyethylene glycol 1000 (PEG-1000) vehicle. A separate sample of the PEG-1000 was also submitted to serve as a placebo for treating virus control animals. The materials and experimental protocol is shown below.
Animals. Female Hartley strain albino guinea pigs weighing about 450-500 g were used. The animals were quarantined 24 hr prior to use in this study, and maintained 5 to a 32"×32"×9" stainless steel cage on Wayne guinea pig diet and water ad libitum.
Virus. Strain E194 of herpes virus type 2 was used. […] The virus was held at -90° C. until used.
(§1) Drugs. The substances tested consisted of four bottles labelled "A", "B", "C", and "D" with no identifying key. The samples were: A, 0.1 mg/ml DHA (0.003 mmol/ml); B, 5% w/w ACV (0.22 mmol/ml); C, 1 mg/ml DHA (0.03 mmol/ml); and D, 10 mg/ml DHA ([…]). […] All were treated as light-sensitive compounds.
Experimental Protocol. The guinea pigs were infected by applying a virus-soaked swab intravaginally, with agitation, for 20 seconds. […] Treatment began 20 hr later, with the compound or placebo applied topically intravaginally, perivaginally, and perianally using cotton swabs soaked in the respective substance. Treatment continued three times daily (8 a.m., noon, 4 p.m.) for 7 days. Ten infected animals were used for each coded substance, with twenty used for virus controls. Five sham-infected animals were concomitantly treated with each coded substance to serve as toxicity controls. Two guinea pigs were held separately to serve as normal untreated controls.
(§2) On days 5 through 8 post-virus inoculation, the genital area was carefully examined and signs of irritation in the toxicity controls and lesion severity in injected animals was scored on a 0 to 4 scale using the same scale as in the mouse bioassay. The results were scored as average daily lesion (ADL) scores for each group, and as mean vaginal lesion (MVL) scores, calculated as the mean of the ADL scores for days 5-8. The maximum mean score for the toxicity control animals was also determined.
On day 6 prior to the 8 a.m. treatment, intravaginal and perivaginal areas of each infected guinea pig were uniformly swabbed with sterile cotton swabs. The swab for each animal was placed in 1.0 ml of sterile Eagles minimum essential medium and immediately frozen at -90° C.; several days later all were thawed and each swab-containing sample vortexed for 15 seconds and then the sample was diluted through a series of 10-fold dilutions in sterile medium. Each dilution was assayed for virus in triplicate by adding 0.1 ml to an established monolayer of MA-104 cells in 96-well disposable plastic microplates. The plates were sealed, incubated at 72 hr at 37° C., and virus-induced cytopathic effect noted microscopically.
Data Analysis. Increases in survivors were analyzed using chi square analysis with Yate's correction. Mean survival times (MST) of animals dying on or before […] were determined for each group, and evaluated using the t test.

[2] = Guinea pig toxicity controls (sham-infected, topical treatment); format: in vivo, guinea pigs; details: for Toxicity Controls Max. Irrit. Score: 0 to 4 scale
Procedure: as §1
Experimental Protocol. The guinea pigs were infected by applying a virus-soaked swab intravaginally, with agitation, for 20 seconds. Toxicity control animals were similar pretreated using swabs soaked in sterile Puck's balanced salt solution. Treatment began 20 hr later, with the compound or placebo applied topically intravaginally, perivaginally, and perianally using cotton swabs soaked in the respective substance. Treatment continued three times daily (8 a.m., noon, 4 p.m.) for 7 days. Ten infected animals were used for each coded substance, with twenty used for virus controls. Five sham-infected animals were concomitantly treated with each coded substance to serve as toxicity controls. Two guinea pigs were held separately to serve as normal untreated controls.
as §2, with “Each animal was observed daily for survival for a total of 28 days. On” for “On”

HSV-2 = experiment: Separate experiments: speed of virus inhibition by DHA
[3] = C: 1 mg/ml DHA in PEG-1000, P < 0.05
[4] = D: 10 mg/ml DHA in PEG-1000, P < 0.05

## CCC=CCC=CCC=CCC=CCC=CCC=CCCC(=O)O [DHA, 4,7,10,13,16,19 Docosahexaenoic Acid]
[1]
  solubility: soluble
Herpes virus type 2; A: 0.1 mg/ml DHA in PEG-1000
  MST (mean survival time): 12.3 days
  MVL Score Day 5: 2.4
  MVL Score Day 6: 3.0
  MVL Score Day 7: 3.5
  MVL Scores Days 5-8: 3.2
  Infected, Treated Surv/Total: 6/10
  MVL Score Day: 3.8
Herpes virus type 2; C: 1 mg/ml DHA in PEG-1000
  MST (mean survival time): 13.3 days
  MVL Score Day 5: 1.7
  MVL Score Day 7: 2.8
  Infected, Treated Surv/Total: 4/10
  MVL Score Day: 3.1
Herpes virus type 2; [3]
  MVL Scores Days 5-8: 2.4
  MVL Score Day 6: 2.3
Herpes virus type 2; D: 10 mg/ml DHA in PEG-1000
  MST (mean survival time): 16.5 days
  MVL Score Day 7: 3.0
  Infected, Treated Surv/Total: 8/10
  MVL Score Day: 3.1
Herpes virus type 2; [4]
  MVL Scores Days 5-8: 2.4
  MVL Score Day 5: 1.5
  MVL Score Day 6: 2.1
Herpes virus type 2
  reduction in lesion scores, in words: neither ACV nor the lowest dosage of DHA were able to achieve a statistically significant reduction in lesion scores
Herpes virus type 2; listed as C
  reduction in lesion scores, in words: statistically significant reductions in lesion scores
Herpes virus type 2; listed as D
  reduction in lesion scores, in words: statistically significant reductions in lesion scores
[2]; A: 0.1 mg/ml DHA in PEG-1000
  Toxicity Controls Surv/Total: 5/5
  Toxicity Controls Max. Irrit. Score: 0.0
[2]; C: 1 mg/ml DHA in PEG-1000
  Toxicity Controls Surv/Total: 5/5
  Toxicity Controls Max. Irrit. Score: 0.0
[2]; D: 10 mg/ml DHA in PEG-1000
  Toxicity Controls Surv/Total: 5/5
  Toxicity Controls Max. Irrit. Score: 0.0
HSV-2; within 30 seconds of contact
  virus inhibited: more than 98%
HSV-2; within 30 minutes of contact
  virus inhibited: > 99.99%
